In paper PMC4890260, “Engineering Bacillus licheniformis for the production of meso-2,3-butanediol” (Biotechnology for Biofuels, 2016):

Experiments:
[1] = biological target: T1, WX-02 GDH (Bacillus licheniformis, UniProt X5FDW5); test: NADH formation at […] nm; assay type: biochemical; details: 4 mM NAD+; 50 mM substrate; Z buffer pH 7.0; 37 °C; 1 mM MgSO4, 10 mM DTT
T1 construct: primers encode native N-term MSKSVK (MG added before) and C-term AESYHD
T1 sequence (X5FDW5 1-367): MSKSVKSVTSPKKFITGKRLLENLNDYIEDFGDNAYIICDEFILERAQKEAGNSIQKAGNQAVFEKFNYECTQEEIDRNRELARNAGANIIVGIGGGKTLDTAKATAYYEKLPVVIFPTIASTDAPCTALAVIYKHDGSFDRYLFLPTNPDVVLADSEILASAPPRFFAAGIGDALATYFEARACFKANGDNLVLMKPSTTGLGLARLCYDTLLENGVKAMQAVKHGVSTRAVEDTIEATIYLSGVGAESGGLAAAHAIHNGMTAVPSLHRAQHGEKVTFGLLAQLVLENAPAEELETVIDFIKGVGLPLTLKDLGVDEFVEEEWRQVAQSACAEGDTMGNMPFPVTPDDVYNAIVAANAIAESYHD

[2] = biological target: T1, WX-02 GDH; test: NADH oxidation at […] nm; assay type: biochemical; details: 0.2 mM NADH; 50 mM substrate; Z buffer pH 7.0; 37 °C; 1 mM MgSO4, 10 mM DTT

Compound	NADH formation at 340 nm [1]	NADH oxidation at 340 nm [2]
C[C@@H](O)[C@@H](C)O [D-2,3-BD]	this enzyme exhibited the highest activity towards D-2,3-BD among various substrates	
CC(=O)[C@@H](C)O [D-AC]		WX-02 GDH accepted D-AC, D-2,3-BD, meso-2,3-BD, and glycerol as substrates
